Experimental data reported in US8053459B1, “Selenolopyrazole derivatives and use thereof as anticancer agents” (China Medical University, priority 2010, dated 2011).

How the values were obtained:
[1] = system: human renal cancer cell lines (A-498); test: MTT cytotoxicity assay, A498; assay type: cell-based; settings: for IC50: Homo sapiens, read-out: IC50 (concentration of 50% proliferation-inhibitory effect) A498, A498 cells, 48 h treatment, MTT, mean of three independent experiments; for potency in inhibiting proliferation of A498 human cancer cell line: summary statement on Table 1
Method: (§1) The human lung cancer cell lines (NCI-H226) and human renal cancer cell lines (A-498) were purchased from the ATCC (Manassas, Va.). The NCI-H226 and A498 cells were cultured in RPMI-1640 and DMEM medium (GIBCO) respectively, supplemented with 10% FBS, penicillin (100 unit/mL)/streptomycin (100 μg/mL) and 1% L-glutamine. All cells were grown in a humidified atmosphere containing 5% CO2 at 37° C. The cytotoxicity was assessed using 3-(4,5-dimethylthiazol-2-yl)-2,5-diphenyltetrazolium bromide (MTT) assay. NCI-H226 and A498 cells were seeded at 1×10^4 cells/well into 96-well plates. After 24 h incubation to allow for cell attachment, cells were treated with test compounds for 48 h. After treatment, cells were washed once with PBS and incubated with 1 mg/ml MTT (Sigma, St. Louis, Mo., USA) for 2 h. Then the formazan precipitate was dissolved in […] DMSO and the absorbance was measured on an ELISA reader at a best wavelength of 570 nm.

[2] = system: human lung cancer cell lines (NCI-H226); test: MTT cytotoxicity assay, NCI-H226; assay type: cell-based; settings: for IC50: Homo sapiens, read-out: IC50 (concentration of 50% proliferation-inhibitory effect) NCI-H226, NCI-H226 cells, 48 h treatment, MTT, mean of three independent experiments; for potency in inhibiting proliferation of NCI-H226 human cancer cell line: summary statement on Table 1
Method: as §1

Compound: OCc1ccc(-c2nn(-c3ccccc3F)c3cc[se]c23)o1
- melting point: 178 to 181 °C

Compound: OCc1ccc(-c2nn(-c3ccccc3)c3[se]ccc23)o1
- melting point: 136 to 138 °C

Compound: COC(=O)c1ccc(-c2nn(-c3ccccc3)c3cc[se]c23)o1 [Compound 34, 3-(5-Methoxycarbonyl-2-furyl)-1-phenylselenolo[3,2-c]-pyrazole]
- melting point: 144 to 147 °C

Compound: COC(=O)c1ccc(-c2nn(-c3ccccc3)c3cc(C)[se]c23)o1 [Compound 35, 3-(5-Methoxycarbonyl-2-furyl)-1-phenyl-5-methylselenolo-[3,2-c]pyrazole]
- melting point: 155 to 157 °C

Compound: COC(=O)c1ccc(-c2nn(-c3ccccc3Cl)c3cc[se]c23)o1 [Compound 36, 3-(5-Methoxycarbonyl-2-furyl)-1-(2-chlorophenyl)selenolo-[3,2-c]pyrazole]
- IC50 [1]: > 100 µM
- melting point: 134 to 136 °C
- IC50 [2]: > 100 µM

Compound: COC(=O)c1ccc(-c2nn(-c3cccc(Cl)c3)c3cc[se]c23)o1 [Compound 37, 3-(5-Methoxycarbonyl-2-furyl)-1-(3-chlorophenyl)selenolo-[3,2-c]pyrazole]
- IC50 [1]: > 100 µM
- melting point: 107 to 109 °C
- IC50 [2]: > 100 µM

Compound: COC(=O)c1ccc(-c2nn(-c3ccc(Cl)cc3)c3cc[se]c23)o1 [Compound 38, 3-(5-Methoxycarbonyl-2-furyl)-1-(4-chlorophenyl)selenolo-[3,2-c]pyrazole]
- IC50 [1]: > 100 µM
- melting point: 146 to 148 °C
- IC50 [2]: > 100 µM

Compound: COC(=O)c1ccc(-c2nn(-c3ccccc3F)c3cc[se]c23)o1 [Compound 39, 3-(5-Methoxycarbonyl-2-furyl)-1-(2-fluorophenyl)selenolo-[3,2-c]pyrazole]
- IC50 [1]: > 100 µM
- IC50 [2]: > 100 µM

Compound: COC(=O)c1ccc(-c2nn(-c3ccc(F)cc3)c3cc[se]c23)o1 [Compound 40, 3-(5-Methoxycarbonyl-2-furyl)-1-(4-fluorophenyl)selenolo-[3,2-c]pyrazole]
- IC50 [1]: > 100 µM
- IC50 [2]: > 100 µM

Compound: COC(=O)c1ccc(-c2nn(-c3ccccc3OC)c3cc[se]c23)o1 [Compound 41, 3-(5-Methoxycarbonyl-2-furyl)-1-(2-methoxyphenyl)selenolo-[3,2-c]pyrazole]
- IC50 [1]: > 100 µM
- melting point: 72 to 76 °C
- IC50 [2]: > 100 µM

Compound: COC(=O)c1ccc(-c2nn(-c3ccc(OC)cc3)c3cc[se]c23)o1 [Compound 42, 3-(5-Methoxycarbonyl-2-furyl)-1-(4-methoxyphenyl)selenolo-[3,2-c]pyrazole]
- IC50 [1]: > 100 µM
- melting point: 89 to 92 °C
- IC50 [2]: > 100 µM

Compound: Cc1cccc(-n2nc(-c3ccc(CO)o3)c3[se]ccc32)c1 [Compound 44, 3-(5-Hydroxymethyl-2-furyl)-1-5-methyl-phenylselenolo[3,2-c]pyrazole]
- IC50 [1]: 1.98 µM
- potency in inhibiting proliferation of A498 human cancer cell line [1]: significant potency
- IC50 [2]: 25 µM
- potency in inhibiting proliferation of NCI-H226 human cancer cell line [2]: significant potency

Compound: O=C(O)c1ccc(-c2nn(-c3ccccc3)c3cc[se]c23)o1 [Compound 48, 3-(5-Hydroxycarbonyl-2-furyl)-1-phenylselenolo[3,2-c]pyrazole]
- melting point: 234 to 237 °C

Compound: Cc1cc2c([se]1)c(-c1ccc(C(=O)O)o1)nn2-c1ccccc1 [Compound 49, 3-(5-Hydroxycarbonyl-2-furyl)-1-phenyl-5-methylselenolo[3,2-c]pyrazole]
- melting point: 236 to 239 °C

Compound: COC(=O)c1ccc(-c2nn(Cc3ccccc3)c3cc[se]c23)o1 [Compound 55, 1-Benzyl-3-(5-methoxycarbonyl-2-furyl)selenolo[3,2-c]-pyrazole]
- melting point: 130 to 131 °C

Compound: COC(=O)c1ccc(-c2nn(Cc3ccccc3)c3cc(C)[se]c23)o1 [Compound 56, 1-Benzyl-3-(5-methoxycarbonyl-2-furyl)-5-methylselenolo[3,2-c]pyrazole]
- melting point: 142 to 145 °C

Compound: OCc1ccc(-c2nn(Cc3ccccc3)c3cc[se]c23)o1 [Compound 57, 1-Benzyl-3-(5-hydroxymethyl-2-furyl)selenolo[3,2-c]pyrazole]
- IC50 [1]: 0.4 µM
- potency in inhibiting proliferation of A498 human cancer cell line [1]: significant potency
- melting point: 126 to 129 °C
- IC50 [2]: 1.4 µM
- potency in inhibiting proliferation of NCI-H226 human cancer cell line [2]: significant potency

Compound: Cc1cc2c([se]1)c(-c1ccc(CO)o1)nn2Cc1ccccc1 [Compound 58, 1-Benzyl-3-(5-hydroxymethyl-2-furyl)-5-methylselenolo[3,2-c]pyrazole]
- melting point: 147 to 148 °C

Compound: O=C(O)c1ccc(-c2nn(Cc3ccccc3)c3cc[se]c23)o1 [Compound 59, 1-Benzyl-3-(5-hydroxycarbonyl-2-furyl)selenolo[3,2-c]pyrazole]
- melting point: 243 to 244 °C

Compound: O=C(O)CCC(=O)OCc1ccc(-c2nn(Cc3ccccc3)c3cc[se]c23)o1 [Compound 60, Succinic Acid mono-[5-(1-benzyl-selenolo[3,2-c]pyrazol-3-yl)furan-2-yl]methyl ester]
- IC50 [1]: 0.8 µM
- potency in inhibiting proliferation of A498 human cancer cell line [1]: significant potency
- melting point: 111 to 114 °C
- IC50 [2]: 2.2 µM
- potency in inhibiting proliferation of NCI-H226 human cancer cell line [2]: significant potency

Compound: COC(=O)c1ccc(-c2nn(-c3ccccc3)c3cc[se]c23)cc1 [Compound 66, 1-Phenyl-3-(p-methoxycarbonylphenyl)selenolo[3,2-c]pyrazole]
- melting point: 165 to 166 °C

Compound: COC(=O)c1ccc(-c2nn(Cc3ccccc3)c3cc[se]c23)cc1 [Compound 67, 1-Benzyl-3-(p-methoxycarbonylphenyl)selenolo[3,2-c]pyrazole]
- melting point: 150 to 153 °C

Compound: OCc1ccc(-c2nn(-c3ccccc3)c3cc[se]c23)cc1 [Compound 68, 1-Phenyl-3-(p-hydroxymethylphenyl)selenolo[3,2-c]pyrazole]
- melting point: 133 to 134 °C

Compound: OCc1ccc(-c2nn(Cc3ccccc3)c3cc[se]c23)cc1 [Compound 69, 1-Benzyl-3-(p-hydroxymethylphenyl)selenolo[3,2-c]pyrazole]
- melting point: 158 to 160 °C

Compound: COC(=O)c1ccc(-c2nn(-c3ccccc3)c3[se]ccc23)o1 [Compound 78, 3-(5-Methoxycarbonyl-2-furyl)-1-phenylselenolo[2,3-c]-pyrazole]
- IC50 [1]: > 100 µM
- melting point: 167 to 169 °C
- IC50 [2]: > 100 µM

Compound: COC(=O)c1ccc(-c2nn(Cc3ccccc3)c3[se]ccc23)o1 [Compound 79, 1-Benzyl-3-(5-methoxycarbonyl-2-furyl)selenolo[2,3-c]pyrazole]
- IC50 [1]: > 100 µM
- melting point: 121 to 123 °C
- IC50 [2]: > 100 µM

Compound: OCc1ccc(-c2nn(Cc3ccccc3)c3[se]ccc23)o1 [Compound 81, 1-Benzyl-3-(5-Hydroxymethyl-2-furyl)selenolo[2,3-c]pyrazole]
- IC50 [1]: 0.14 µM
- potency in inhibiting proliferation of A498 human cancer cell line [1]: significant potency
- melting point: 130.2 to 131.3 °C
- potency in inhibiting proliferation of NCI-H226 human cancer cell line [2]: significant potency
